According to patent US9359298B2, “Cajanine structure analogous compound, preparation method and use” (INSTITUTE OF MEDICINAL BIOTECHNOLOGY, CHINESE ACADEMY OF …, priority 2011, dated 2016):
Values after ≈ are worked out from the molar mass of the structure shown. Like-named read-outs stand apart in the source and are kept apart here.

Assays:
Format in all cases: cell-based
PC12 cells [1] = assay: Neuroprotective activity assay, serum-deprived injury to PC12 cells (MTT); conditions: for viability at 10 µM: Rattus norvegicus, PC-12, 48 h, read-out: serum-deprived (surviving PC12 cells, MTT 570 nm); for protective effect on serum-deprived injury to PC12 cells: statement in words
Description: (§1) Discard the original culture media from confluent monolayers of PC12 cells (simulated neuronal cells), add DMEM complete medium with 5% FBS, 5% horse serum gently beat upon the cells with a pipette to completely disperse them, inoculate 100 μl cell suspension at a density of […] per well to 96 hole plates treated with poly-lysine (0.1 mg/ml) in advance, culture for 24h. Divide the experimenting cells into control group, model group and dosing groups. Add complete medium to the control group. Model groups includes rotenone group and serum-deprived group, add rotenone to the corresponding modules with a final concentration of 4 μM rotenone to take effect on the cells for 48 h, add serum-deprived groups with serum-free DMEM medium to take effect on the cells for 48 h. Dosing groups also includes two groups, one using rotenone module as model, another using serum-deprived module as model, and both add in 10 μM test compounds during modeling. 48h later, add 10 μl 5 mg/ml MTT, subsequently discard the supernatant 4h later and add in 150 μl DMSO, measure 570 nm absorbance to represent the numbers of surviving cells.

[2] = test system: Influenza A virus (hanfang359/95); assay: Determination of anti-influenza virus activity (CPE in MDCK cells); conditions: for IC50: Influenza A virus, MDCK, 36 h; for anti-influenza virus activities compared with the lead compound cajanine: statement in words
HIV-1 III B virus = assay: Anti-HIV activity assay (P24 antigen in MT-4 cells); conditions: for IC50: Human immunodeficiency virus 1, MT4, 96 h, read-out: HIV IC50; for anti-HIV viral activity: statement in words
Coxsackie virus B6 = assay: Coxsackie virus activity assay (CPE in Vero cells); conditions: for IC50: Vero, read-out: COX-B6 IC50, Vero cells, about 100TCID50, CPE, Reed-Muench
PC12 cells [3] = assay: Neuroprotective activity assay, rotenone injury to PC12 cells (MTT); conditions: for viability at 10 µM: Rattus norvegicus, PC-12, 48 h, read-out: rotenone (surviving PC12 cells, MTT 570 nm); for protective effect on rotenone injury to PC12 cells: statement in words
Description: as §1

HCV = assay: Anti-hepatitis C virus (HCV) activity assay (HCV RNA in Huh7.5 cells); conditions: for EC50: Hepatitis C virus, Huh7.5, 72 h, read-out: HCV EC50; for anti-HCV viral activity: statement in words
Description: Inoculate Huh7.5 cells into 96-well plates to a density of 3×10^4 cells/cm^2, culture for 24h, infect the cells with 45 IU/cell HCV supernatant, meanwhile, add drug solutions or solvent control for treatment.

[4] = 10 μM test compound, 48 h, Control 100.0 ± 9.2, Model 69.3 ± 4.1
[5] = MT-4 cells, HIV-1 III B 100TCID50, 96 h, P24 antigen
[6] = 10 μM test compound, 4 μM rotenone, 48 h, Control 100.0 ± 8.9, Model 73.2 ± 7.8
[7] = Huh7.5 cells, 72 h, HCV RNA by RT-PCR, Reed-Muench

Row | Compound | viability at 10 µM (PC12 cells [1]; [4]) | IC50 [2] | IC50 (HIV-1 III B virus; [5]) | IC50 (Coxsackie virus B6) | viability at 10 µM (PC12 cells [3]; [6]) | EC50 (HCV; [7]) | anti-HIV viral activity (HIV-1 III B virus) | anti-HCV viral activity (HCV) | anti-influenza virus activities compared with the lead compound cajanine [2] | EC50 (HCV) | serum-deprived (surviving PC12 cells, MTT 570 nm) (PC12 cells [1]; [4]) | Influenza A virus (hanfang359/95) IC50 [2] | HIV IC50 (HIV-1 III B virus; [5]) | COX-B6 IC50 (Coxsackie virus B6) | rotenone (surviving PC12 cells, MTT 570 nm) (PC12 cells [3]; [6]) | HCV EC50 (HCV; [7]) | protective effect on serum-deprived injury to PC12 cells (PC12 cells [1]) | protective effect on rotenone injury to PC12 cells (PC12 cells [3])
1 | COc1cc(/C=C/c2ccc(C)cc2)c(C(=O)O)c(O)c1CC=C(C)C [Compound 1g, 2-hydroxy-3-isopentenyl-4-methoxy-6-[(E)-4-methylstyryl]benzoic acid] | 59.8 ± 11.4% | > 0.82 µg/mL | 0.68 µg/mL (≈ 1.93 µM) | 4.25 µg/mL (≈ 12.1 µM) | 77.7 ± 12.9% | 1.43 µg/mL (≈ 4.06 µM) | – | – | – | – | – | – | – | – | – | – | – | –
2 | CC/C=C/c1cc(OC)c(CC=C(C)C)c(O)c1C(=O)O [Compound 1h, 2-hydroxy-3-isopentenyl-4-methoxy-6-[(E)-buten-1-yl]benzoic acid] | 43.8 ± 8.8% | 1.92 µg/mL (≈ 6.61 µM) | 2.39 µg/mL (≈ 8.23 µM) | 15.3 µg/mL (≈ 52.7 µM) | 70 ± 7.1% | 2.6 µg/mL (≈ 8.95 µM) | – | – | – | – | – | – | – | – | – | – | – | –
3 | COc1cc(/C=C(\C)c2ccccc2)c(C(=O)O)c(O)c1CC=C(C)C [Compound 1i, 2-hydroxy-3-isopentenyl-4-methoxy-6-[(E)-2-phenylpropen-1-yl]benzoic acid] | 28.3 ± 7.6% | > 0.82 µg/mL | 1.31 µg/mL (≈ 3.72 µM) | 6.25 µg/mL (≈ 17.7 µM) | 55.1 ± 4.8% | 0.59 µg/mL (≈ 1.67 µM) | stronger anti-HIV, HCV viral activities | stronger anti-HIV, HCV viral activities | – | – | – | – | – | – | – | – | – | –
4 | COc1cc(/C=C/c2cccs2)c(C(=O)O)c(O)c1CC=C(C)C [Compound 1j, 2-hydroxy-3-isopentenyl-4-methoxy-6-[(E)-2-(thien-2-yl)ethenyl]benzoic acid] | 27.7 ± 6.3% | > 0.27 µg/mL | 1.02 µg/mL (≈ 2.96 µM) | 2.13 µg/mL (≈ 6.18 µM) | 59.8 ± 7.7% | 0.77 µg/mL (≈ 2.24 µM) | stronger anti-HIV, HCV viral activities | stronger anti-HIV, HCV viral activities | – | – | – | – | – | – | – | – | – | –
5 | COc1cc(/C=C/Cc2ccccc2)c(C(=O)O)c(O)c1CC=C(C)C [Compound 1k, 2-hydroxy-3-isopentenyl-4-methoxy-6-[(E)-3′-phenyl-propen-1′-yl]benzoic acid] | 19.2 ± 0.5% | 2.05 µg/mL (≈ 5.82 µM) | 2.4 µg/mL (≈ 6.81 µM) | > 2.06 µg/mL | 60.4 ± 3.2% | 1.03 µg/mL (≈ 2.92 µM) | – | – | significantly stronger than the lead compound cajanine | – | – | – | – | – | – | – | – | –
6 | COc1cc(/C=C/CCc2ccccc2)c(C(=O)O)c(O)c1CC=C(C)C [Compound 1l, 2-hydroxy-3-isopentenyl-4-methoxy-6-[(E)-4′-phenylbuten-1′-yl]benzoic acid] | 27.2 ± 7.2% | 0.36 µg/mL (≈ 0.982 µM) | 1.64 µg/mL (≈ 4.48 µM) | > 2.06 µg/mL | 58.4 ± 1.4% | 0.65 µg/mL (≈ 1.77 µM) | stronger anti-HIV, HCV viral activities | stronger anti-HIV, HCV viral activities | significantly stronger than the lead compound cajanine | – | – | – | – | – | – | – | – | –
7 | COc1cc(/C=C/C=C/c2ccccc2)c(C(=O)O)c(O)c1CC=C(C)C [Compound 1m, 2-hydroxy-3-isopentenyl-4-methoxy-6-[(1′E,3′E)-phenylbutadien-1′,3′-yl]benzoic acid] | 21 ± 2.2% | 6.17 µg/mL (≈ 16.9 µM) | 1.07 µg/mL (≈ 2.94 µM) | > 2.06 µg/mL | 74.4 ± 4.4% | – | – | – | – | 6.17 µg/mL (≈ 16.9 µM) | – | – | – | – | – | – | – | –
8 | COc1cc(C=C2CCC(C)CC2)c(C(=O)O)c(O)c1CC=C(C)C (stereo not drawn) [Compound 1n, 2-hydroxy-3-isopentenyl-4-methoxy-6-(4′-methyl-cyclohexylenemethyl)benzoic acid] | – | – | – | – | – | – | – | – | – | – | 17.3 ± 2.4 | >6.17 µg/mL | 0.99 µg/mL | >0.69 µg/mL | 62.9 ± 2.7 | 2.61 µg/mL | – | –
9 | COc1cc(/C=C/c2ccccc2)c(C(=O)O)c(O)c1C/C=C(\C)CCC=C(C)C [Compound 1o] | 28.1 ± 11.9% | > 2.47 µg/mL | 1.76 µg/mL (≈ 4.33 µM) | 1.36 µg/mL (≈ 3.35 µM) | 61 ± 2.8% | 1.47 µg/mL (≈ 3.62 µM) | – | – | – | – | – | – | – | – | – | – | – | –
10 | COc1cc(/C=C/C2CCCCC2)c(C(=O)O)c(O)c1CC=C(C)C [Compound 1p, 2-hydroxy-3-isopentenyl-4-methoxy-6-[(E)-2-cyclohexyl-vinyl]benzoic acid] | 81.2 ± 3.2% | 8.62 µg/mL (≈ 25 µM) | 1.06 µg/mL (≈ 3.08 µM) | > 2.06 µg/mL | 82 ± 2.3% | – | – | – | – | 8.62 µg/mL (≈ 25 µM) | – | – | – | – | – | – | the strongest activities | the strongest activities
11 | COc1cc(/C=C/c2ccc(O)cc2)c(C(=O)O)c(O)c1CC=C(C)C [Compound 1q] | 79.6 ± 2.8% | 2.35 µg/mL (≈ 6.63 µM) | 1.86 µg/mL (≈ 5.25 µM) | 0.86 µg/mL (≈ 2.43 µM) | 78.9 ± 5.3% | 2.3 µg/mL (≈ 6.49 µM) | – | – | significantly stronger than the lead compound cajanine | – | – | – | – | – | – | – | – | –
12 | COc1cc(/C=C/c2ccncc2)c(C(=O)O)c(O)c1CC=C(C)C [Compound 1r, 2-hydroxy-3-isopentenyl-4-methoxy-6-[(E)-2-(pyridin-4-yl)ethenyl]benzoic acid] | 84.3 ± 6.3% | 6.36 µg/mL (≈ 18.7 µM) | 6.53 µg/mL (≈ 19.2 µM) | 6.35 µg/mL (≈ 18.7 µM) | 86.3 ± 5.4% | 6.79 µg/mL (≈ 20 µM) | – | – | – | – | – | – | – | – | – | – | the strongest activities | the strongest activities
13 | COc1cc(/C=C(\C(=O)O)c2ccccc2)c(C(=O)O)c(O)c1CC=C(C)C [Compound 1s] | 89.8 ± 3.2% | 0.54 µg/mL (≈ 1.41 µM) | 0.75 µg/mL (≈ 1.96 µM) | 0.85 µg/mL (≈ 2.22 µM) | 88.7 ± 6.1% | 0.84 µg/mL (≈ 2.2 µM) | stronger anti-HIV, HCV viral activities | stronger anti-HIV, HCV viral activities | – | – | – | – | – | – | – | – | – | –
14 | COc1cc(/C=C/c2ccccn2)c(C(=O)O)c(O)c1CC=C(C)C [Compound 1t, 2-hydroxy-3-isopentenyl-4-methoxy-6-[(E)-2-(pyrid-2-yl)ethenyl]benzoic acid] | 85.1 ± 2.1% | 0.34 µg/mL (≈ 1 µM) | 1.07 µg/mL (≈ 3.15 µM) | 0.61 µg/mL (≈ 1.8 µM) | 84.6 ± 1.2% | 1.58 µg/mL (≈ 4.66 µM) | – | – | significantly stronger than the lead compound cajanine | – | – | – | – | – | – | – | – | –
15 | COc1cc(/C=C/c2cc(OC)c(OC)c(OC)c2)c(C(=O)O)c(O)c1CC=C(C)C [Compound 1u, 2-hydroxy-3-isopentenyl-4-methoxy-6-[(E)-(3,4,5-trimethoxystyryl)]benzoic acid] | 89.3 ± 2.3% | 0.21 µg/mL (≈ 0.49 µM) | 0.16 µg/mL (≈ 0.373 µM) | 0.14 µg/mL (≈ 0.327 µM) | 90 ± 3.2% | 0.84 µg/mL (≈ 1.96 µM) | stronger anti-HIV, HCV viral activities | stronger anti-HIV, HCV viral activities | significantly stronger than the lead compound cajanine | – | – | – | – | – | – | – | the strongest activities | the strongest activities
16 | COc1ccnc(/C=C/c2cc(OC)c(CC=C(C)C)c(O)c2C(=O)O)c1 [Compound 1v, 2-hydroxy-3-isopentenyl-4-methoxy-6-[(E)-2-(4-methoxypyrid-2-yl)ethenyl]benzoic acid] | 79.9 ± 1.6% | 2.31 µg/mL (≈ 6.25 µM) | 1.48 µg/mL (≈ 4.01 µM) | 1.25 µg/mL (≈ 3.38 µM) | 87.2 ± 2.6% | – | – | – | – | 1.25 µg/mL (≈ 3.38 µM) | – | – | – | – | – | – | – | –
